Test results reported in US10781224B2, “Bis(oxymethyl)phosphinic acid and biogenic metal salts thereof as regulators of plant growth and development” (priority 2016, dated 2020).

Experiments:
Type in all cases: in vivo
[1] = system: winter wheat (Vershin variety); experiment: Winter wheat seed treatment with BHMPA salts: germination energy and germination rate
Summary of the method: (§1)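 Corn, winter wheat and rice seeds (50 per dish, on filter paper) were soaked for 1 h in BHMPA or its metal salts at 1·10^−6-1·10^−12%, with water as control. Germination energy was read on day 4 and germination rate on day 8 for wheat and day 7 for rice and corn, following GOST 12038-84, as the mean of four replicates.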

[2] = system: corn (Krasnodar 385 MV variety); experiment: Corn seed treatment with BHMPA salts: germination energy and germination rate
Summary of the method: as §1

[3] = system: winter wheat (Vershin variety); experiment: Winter wheat seed treatment with BHMPA salts: germinating power (length and mass of roots and sprouts)
Summary of the method: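 Seeds (50 per Petri dish on two layers of filter paper) soaked 1 h in BHMPA or its Ca, Mg, Na, Co, Mn, Cu or Zn salts at 1·10^−6-1·10^−12%, with water controls. Germination energy read on day 4, germination on day 8 (wheat) or day 7 (rice, corn), as % means of four replicates. Germinating power taken as root and sprout length plus wet and dry mass per 100 seedlings.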

[4] = winter wheat Vershin, 1·10^−6% solution
[5] = winter wheat Vershin, 1·10^−7% solution
[6] = winter wheat Vershin, 1·10^−8% solution
[7] = winter wheat Vershin, 1·10^−9% solution
[8] = winter wheat Vershin, 1·10^−10% solution
[9] = winter wheat Vershin, 1·10^−11% solution
[10] = winter wheat Vershin, 1·10^−12% solution
[11] = winter wheat, comparative study vs Melaphen, 1·10^−9% solution
[12] = 1·10^−9% solution, listed as Zn
[13] = comparative study vs Melaphen, 1·10^−8% solution
[14] = comparative study, 1·10^−9% solution

O=P([O-])(CO)CO.O=P([O-])(CO)CO.[Zn+2] [Zn-salt, Zinc BHMPA Salt]
Germination energy [1, 4]: 91.9% | Germination rate [1, 4]: 95.3% | Germination energy [1, 5]: 92.7% | Germination rate [1, 5]: 96.0% | Germination energy [1, 6]: 94.1% | Germination rate [1, 6]: 97.3% | Germination energy [1, 7]: 96.1% | Germination rate [1, 7]: 98.3% | Germination energy [1, 8]: 95.4% | Germination rate [1, 8]: 97.3% | Germination energy [1, 9]: 93.2% | Germination rate [1, 9]: 96.0% | Germination energy [1, 10]: 92.3% | Germination rate [1, 10]: 96.0% | Germination energy [1, 11]: 94.0% | Germination rate [1, 11]: 97.3% | Germination energy ([2]; 1·10^−6% solution): 77.7% | Germination rate ([2]; 1·10^−6% solution): 80.0% | Germination energy ([2]; 1·10^−7% solution): 84.0% | Germination rate ([2]; 1·10^−7% solution): 86.7% | Germination energy ([2]; 1·10^−8% solution): 88.3% | Germination rate ([2]; 1·10^−8% solution): 90.8% | Germination energy ([2]; 1·10^−9% solution): 88.3% | Germination rate ([2]; 1·10^−9% solution): 90.8% | Germination energy [2, 12]: 84.2% | Germination rate [2, 12]: 86.7% | Germination energy ([2]; 1·10^−10% solution): 82.3% | Germination rate ([2]; 1·10^−10% solution): 85.0% | Germination energy ([2]; 1·10^−11% solution): 80.7% | Germination rate ([2]; 1·10^−11% solution): 83.3% | Germination energy ([2]; 1·10^−12% solution): 79.0% | Germination rate ([2]; 1·10^−12% solution): 81.7% | Germination energy [2, 13]: 88.0% | Germination rate [2, 13]: 95.7% | Length, root ([3]; 1·10^−6% solution): 9.1 cm | Length, root, + % to control ([3]; 1·10^−6% solution): −6% | Length, sprout ([3]; 1·10^−6% solution): 6.9 cm | Length, sprout, + % to control ([3]; 1·10^−6% solution): −4% | Mass, dry, root ([3]; 1·10^−6% solution): 0.60 g/100 plantlings | Mass, dry, root, + % to control ([3]; 1·10^−6% solution): 5% | Mass, dry, sprout ([3]; 1·10^−6% solution): 0.61 g/100 plantlings | Mass, dry, sprout, + % to control ([3]; 1·10^−6% solution): −4% | Mass, wet, root ([3]; 1·10^−6% solution): 2.58 g/100 plantlings | Mass, wet, root, + % to control ([3]; 1·10^−6% solution): 0% | Mass, wet, sprout ([3]; 1·10^−6% solution): 4.73 g/100 plantlings | Mass, wet, sprout, + % to control ([3]; 1·10^−6% solution): −1% | Length, root ([3]; 1·10^−7% solution): 10.2 cm | Length, root, + % to control ([3]; 1·10^−7% solution): 5% | Length, sprout ([3]; 1·10^−7% solution): 7.3 cm | Length, sprout, + % to control ([3]; 1·10^−7% solution): 1% | Mass, dry, root ([3]; 1·10^−7% solution): 0.62 g/100 plantlings | Mass, dry, root, + % to control ([3]; 1·10^−7% solution): 9% | Mass, dry, sprout ([3]; 1·10^−7% solution): 0.70 g/100 plantlings | Mass, dry, sprout, + % to control ([3]; 1·10^−7% solution): 9% | Mass, wet, root ([3]; 1·10^−7% solution): 2.61 g/100 plantlings | Mass, wet, root, + % to control ([3]; 1·10^−7% solution): 1% | Mass, wet, sprout ([3]; 1·10^−7% solution): 4.88 g/100 plantlings | Mass, wet, sprout, + % to control ([3]; 1·10^−7% solution): 2.5% | Length, root ([3]; 1·10^−8% solution): 10.3 cm | Length, root, + % to control ([3]; 1·10^−8% solution): 6% | Length, sprout ([3]; 1·10^−8% solution): 7.5 cm | Length, sprout, + % to control ([3]; 1·10^−8% solution): 4% | Mass, dry, root ([3]; 1·10^−8% solution): 0.64 g/100 plantlings | Mass, dry, root, + % to control ([3]; 1·10^−8% solution): 12% | Mass, dry, sprout ([3]; 1·10^−8% solution): 0.77 g/100 plantlings | Mass, dry, sprout, + % to control ([3]; 1·10^−8% solution): 20% | Mass, wet, root ([3]; 1·10^−8% solution): 2.77 g/100 plantlings | Mass, wet, root, + % to control ([3]; 1·10^−8% solution): 7% | Mass, wet, sprout ([3]; 1·10^−8% solution): 4.98 g/100 plantlings | Mass, wet, sprout, + % to control ([3]; 1·10^−8% solution): 5% | Length, root ([3]; 1·10^−9% solution): 10.9 cm | Length, root, + % to control ([3]; 1·10^−9% solution): 12% | Length, sprout ([3]; 1·10^−9% solution): 7.6 cm | Length, sprout, + % to control ([3]; 1·10^−9% solution): 5.5% | Mass, dry, root ([3]; 1·10^−9% solution): 0.69 g/100 plantlings | Mass, dry, root, + % to control ([3]; 1·10^−9% solution): 21% | Mass, dry, sprout ([3]; 1·10^−9% solution): 0.82 g/100 plantlings | Mass, dry, sprout, + % to control ([3]; 1·10^−9% solution): 28% | Mass, wet, root ([3]; 1·10^−9% solution): 3.58 g/100 plantlings | Mass, wet, root, + % to control ([3]; 1·10^−9% solution): 38% | Mass, wet, sprout ([3]; 1·10^−9% solution): 5.13 g/100 plantlings | Mass, wet, sprout, + % to control ([3]; 1·10^−9% solution): 8% | Length, root ([3]; 1·10^−10% solution): 10.8 cm | Length, root, + % to control ([3]; 1·10^−10% solution): 11% | Length, sprout ([3]; 1·10^−10% solution): 7.6 cm | Length, sprout, + % to control ([3]; 1·10^−10% solution): 5.5% | Mass, dry, root ([3]; 1·10^−10% solution): 0.65 g/100 plantlings | Mass, dry, root, + % to control ([3]; 1·10^−10% solution): 14% | Mass, dry, sprout ([3]; 1·10^−10% solution): 0.80 g/100 plantlings | Mass, dry, sprout, + % to control ([3]; 1·10^−10% solution): 25% | Mass, wet, root ([3]; 1·10^−10% solution): 3.24 g/100 plantlings | Mass, wet, root, + % to control ([3]; 1·10^−10% solution): 25% | Mass, wet, sprout ([3]; 1·10^−10% solution): 4.96 g/100 plantlings | Mass, wet, sprout, + % to control ([3]; 1·10^−10% solution): 4% | Length, root ([3]; 1·10^−11% solution): 10.3 cm | Length, root, + % to control ([3]; 1·10^−11% solution): 6% | Length, sprout ([3]; 1·10^−11% solution): 7.3 cm | Length, sprout, + % to control ([3]; 1·10^−11% solution): 1% | Mass, dry, root ([3]; 1·10^−11% solution): 0.63 g/100 plantlings | Mass, dry, root, + % to control ([3]; 1·10^−11% solution): 10.5% | Mass, dry, sprout ([3]; 1·10^−11% solution): 0.74 g/100 plantlings | Mass, dry, sprout, + % to control ([3]; 1·10^−11% solution): 16% | Mass, wet, root ([3]; 1·10^−11% solution): 2.8 g/100 plantlings | Mass, wet, root, + % to control ([3]; 1·10^−11% solution): 8% | Mass, wet, sprout ([3]; 1·10^−11% solution): 4.92 g/100 plantlings | Mass, wet, sprout, + % to control ([3]; 1·10^−11% solution): 3% | Length, root ([3]; 1·10^−12% solution): 10.1 cm | Length, root, + % to control ([3]; 1·10^−12% solution): 4% | Length, sprout ([3]; 1·10^−12% solution): 7.2 cm | Length, sprout, + % to control ([3]; 1·10^−12% solution): 0% | Mass, dry, root ([3]; 1·10^−12% solution): 0.62 g/100 plantlings | Mass, dry, root, + % to control ([3]; 1·10^−12% solution): 9% | Mass, dry, sprout ([3]; 1·10^−12% solution): 0.63 g/100 plantlings | Mass, dry, sprout, + % to control ([3]; 1·10^−12% solution): −1% | Mass, wet, root ([3]; 1·10^−12% solution): 2.65 g/100 plantlings | Mass, wet, root, + % to control ([3]; 1·10^−12% solution): 2% | Mass, wet, sprout ([3]; 1·10^−12% solution): 4.90 g/100 plantlings | Mass, wet, sprout, + % to control ([3]; 1·10^−12% solution): 3% | Length, root [3, 14]: 9.5 cm | Length, root, + % to control [3, 14]: 9% | Length, sprout [3, 14]: 6.3 cm | Length, sprout, + % to control [3, 14]: 2% | Mass, dry, root [3, 14]: 0.68 g/100 plantlings | Mass, dry, root, + % to control [3, 14]: 10% | Mass, dry, sprout [3, 14]: 0.55 g/100 plantlings | Mass, dry, sprout, + % to control [3, 14]: 8% | Mass, wet, root [3, 14]: 5.18 g/100 plantlings | Mass, wet, root, + % to control [3, 14]: 43% | Mass, wet, sprout [3, 14]: 4.91 g/100 plantlings | Mass, wet, sprout, + % to control [3, 14]: 24%
